How the values were obtained:
C. glutamicum [1] = assay: Microbioreactor cultivation at different initial ectoine levels (growth, on-line OD620); format: cell-based, Corynebacterium glutamicum ATCC 13032; conditions: 30°C
Method: Cultivation of C. glutamicum in microbioreactors. Screening of C. glutamicum strains was carried out in 48-well flower plates with transparent bottom for online biomass sensing using a microbioreactor (BioLector, Beckman Coulter GmbH, Baesweiler, Germany, Baesweiler, Germany) at 1,300 rpm, 85% humidity and different temperatures, as given below. Two subsequent pre-cultures were conducted in shake flasks as described above. For main cultures, each well of the microtiter plate was filled with 1 mL of minimal glucose medium and inoculated to an initial OD660 of 0.5. Over the course of the cultivation, biomass was measured online as light backscatter at 620 nm. All experiments were conducted as triplicate.
In a first experiment the inventors examined if C. glutamicum, expressing ectD from P. stutzeri, can convert externally supplied ectoine into hydroxyectoine and, beneficially, excrete the latter (Fig. 1c). […]

C. glutamicum [2] = assay: Quantification of intracellular ectoines and free amino acids in cells grown with ectoine; format: cell-based, Corynebacterium glutamicum ATCC 13032; conditions: 37°C, 10 h
Method: Cultivation of C. glutamicum in shake flask. Cultures of C. glutamicum were incubated in baffled shake flasks (10% filling volume) in an orbital shaker at 230 rpm (Multitron, Infors AG, Bottmingen, Switzerland). For pre-culturing, cells were first grown overnight in complex BHI medium using a single colony from a 2-day pre-incubated BHI agar plate as inoculum. Subsequently, cells were harvested (8500 xg, 5 min, RT), washed once with minimal medium, and used to inoculate a second pre-culture in minimal glucose medium. The second pre-culture was then harvested during the exponential phase (8500 xg, 5 min, RT), washed once, and used to inoculate the main culture, again in minimal medium. The temperature was set to 30°C for precultures and 37°C for main cultures. All experiments were conducted as triplicate.
Quantification of intracellular metabolites. To quantify intracellular amino acids and ectoines, 2 mL of mid-exponentially growing cells were sampled by fast filtration (cellulose nitrate filter, 0.2 µm, 47 mm, Sartorius, Göttingen, Germany) (Bolten CJ, Kiefer P, Letisse F, Portais J-C, Wittmann C: Sampling for Metabolome Analysis of Microorganisms. Analytical chemistry 2007, 79:3843-3849.), including twice washing of the cells on the filter with two volumes of 2.5% NaCl. The filters were then transferred into cups prefilled with a 220 µM α-amino butyric acid solution as internal standard for later quantification. […] The obtained supernatants were collected for analysis, and intracellular amino acids were quantified by HPLC (Hans MA, Heinzle E, Wittmann C: Quantification of intracellular amino acids in batch cultures of Saccharomyces cerevisiae. Appl Microbiol Biotechnol 2001, 56:776-779.).
Quantification of ectoine and hydroxyectoine. Concentrations of ectoine and hydroxyectoine were analyzed by HPLC (Agilent Series 1290 Infinity, Agilent, Santa Clara, CA, USA). […] External standards were applied for quantification.
Quantification of amino acids. Amino acid levels of cell lysates were quantified using HPLC (Agilent Series 1290 Infinity, Agilent, Santa Clara, CA, USA) with α-amino butyric acid as internal standard. For this, the analytes were derivatized with ortho-phthalaldehyde and 9-fluorenylmethyl chloroformate and were separated and quantified as described previously (Krömer J, Fritz M, Heinzle E, Wittmann C: In vivo quantification of intracellular amino acids and intermediates of the methionine pathway in Corynebacterium glutamicum. Analytical biochemistry 2005, 340:171-173.).
For this purpose, the inventors extracted and quantified intracellular ectoine, hydroxyectoine, and free proteinogenic amino acids from the three strains during mid exponential growth, i. e. after 10 h (Fig. 3). […]

[3] = hydroxyectoine producers, glucose + 5 mM ectoine

CC1=NC(C(=O)O)CCN1 (stereo not drawn) [ectoine, 1,4,5,6-tetrahydro-2-methyl-4-pyrimidinecarboxylic acid]
cell fitness (C. glutamicum [1]; increasing ectoine concentration, strains expressing MSM, VSA, HEL, SCO EctD variants): unchanged
cell fitness (specific growth rate) (C. glutamicum [1]; initial ectoine 5, 10, 15 mM, strains pClik and pCES PtufectD^PST): not affected
reduction of intracellular I-glutamic acid (C. glutamicum [2]; MSM strain, glucose + 5 mM ectoine, versus control without ectoine): up to 47%
intracellular pools of I-glutamic acid, I-glutamine, and I-proline (C. glutamicum [2]; ectoine added to non-producing control strain with empty pCES vector, 5 mM): strongly reduced
drop of intracellular level of I-glutamine (C. glutamicum [2]; [3]): up to 61%
drop of intracellular level of I-proline (C. glutamicum [2]; [3]): up to 50%

From patent EP4379060A1, “HIGH-EFFICIENCY PRODUCTION OF HYDROXYECTOINE” (Universität des Saarlandes, priority 2022, dated 2024)
